According to ChEMBL document CHEMBL2073978, “Interactions of n-tetraalkylammonium compounds and biguanides with a human renal organic cation transporter (hOCT2)” (Pharm Res, 2002):
pIC50: −log10 of the molar value.

Experiments:
[1] = target: T1, Solute carrier family 22 member 2 (Homo sapiens, UniProt O15244); type: functional, cell-based, Xenopus laevis, Oocyte
T1 sequence (O15244 whole entry): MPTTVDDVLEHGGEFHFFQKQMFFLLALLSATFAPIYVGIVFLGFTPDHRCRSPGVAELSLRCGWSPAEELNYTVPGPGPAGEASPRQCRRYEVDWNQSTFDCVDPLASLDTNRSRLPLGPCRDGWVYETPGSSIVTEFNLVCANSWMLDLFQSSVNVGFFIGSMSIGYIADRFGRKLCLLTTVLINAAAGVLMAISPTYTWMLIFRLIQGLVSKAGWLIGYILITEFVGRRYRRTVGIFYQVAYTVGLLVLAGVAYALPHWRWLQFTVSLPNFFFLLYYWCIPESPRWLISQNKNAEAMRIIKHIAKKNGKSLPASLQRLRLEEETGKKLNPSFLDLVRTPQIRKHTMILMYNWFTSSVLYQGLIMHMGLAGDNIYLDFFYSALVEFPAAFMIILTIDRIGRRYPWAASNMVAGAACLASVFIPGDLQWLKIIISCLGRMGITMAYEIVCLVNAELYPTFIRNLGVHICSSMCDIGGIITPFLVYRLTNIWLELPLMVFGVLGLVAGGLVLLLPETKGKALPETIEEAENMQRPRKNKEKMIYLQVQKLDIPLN

[2] = target: T1, Solute carrier family 22 member 2; experiment: (§1) TP_TRANSPORTER: inhibition of Cimetidine uptake (Cimetidine: 1 uM) in Xenopus laevis oocytes; type: functional, cell-based, Oocyte
[3] = target: T2, Solute carrier family 22 member 1 (Homo sapiens, UniProt O15245); experiment: as §1; type: functional, cell-based, Oocyte
T2 sequence (O15245 whole entry): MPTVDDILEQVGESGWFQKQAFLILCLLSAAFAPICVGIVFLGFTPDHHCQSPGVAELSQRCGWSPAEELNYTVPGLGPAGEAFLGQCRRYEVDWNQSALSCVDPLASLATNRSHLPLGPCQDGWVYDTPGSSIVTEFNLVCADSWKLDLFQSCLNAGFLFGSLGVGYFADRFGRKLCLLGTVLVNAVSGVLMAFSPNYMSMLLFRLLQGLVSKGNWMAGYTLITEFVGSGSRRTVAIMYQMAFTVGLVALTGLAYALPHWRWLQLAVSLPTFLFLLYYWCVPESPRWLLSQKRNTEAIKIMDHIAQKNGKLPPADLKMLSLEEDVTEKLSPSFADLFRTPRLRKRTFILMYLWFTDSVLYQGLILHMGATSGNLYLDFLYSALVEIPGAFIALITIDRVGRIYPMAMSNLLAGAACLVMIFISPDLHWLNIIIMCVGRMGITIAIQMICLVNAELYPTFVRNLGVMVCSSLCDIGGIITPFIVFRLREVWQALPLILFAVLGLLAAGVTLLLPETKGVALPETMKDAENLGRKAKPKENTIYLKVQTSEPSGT

SMILES | pIC50 [1] | pIC50 [2] | pIC50 [3]
CCCC[N+](CCCC)(CCCC)CCCC [TETRABUTHYLAMMONIUM] | 3.92 | – | –
CN(C)C(=N)N=C(N)N [METFORMIN] | – | 2.77 | –
CC[N+](CC)(CC)CC [TETRYLAMMONIUM] | 3.81 | – | –
CCC[N+](CCC)(CCC)CCC [TETRAPROPYLAMMONIUM] | 3.89 | – | –
[H]/N=C(/N)N/C(=N/[H])NCCc1ccccc1 [PHENFORMIN] | – | 4.19 | 5.00
